Assay results from PubChem BioAssay (NCI).
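Test compounds were applied to cells in 96-well plates for 48 hours at 5 doses. GI50: concentration for 50% inhibition of growth. At the TGI there is no net growth.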

How the values were obtained:
Assay in all cases: growth of human tumour cells (NCI), 48 h
DU-145 prostate = system: DU-145 prostate
EKVX NSCLC = system: EKVX NSCLC
HCT-116 colon = system: HCT-116 colon
HS 578T breast = system: HS 578T breast
HT29 colon = system: HT29 colon
LOX IMVI melanoma = system: LOX IMVI melanoma
MCF7 breast = system: MCF7 breast
MDA-MB-231 breast = system: MDA-MB-231 breast
SNB-19 CNS = system: SNB-19 CNS
UACC-62 melanoma = system: UACC-62 melanoma

Compound | TGI (DU-145 prostate) | TGI (EKVX NSCLC) | TGI (HCT-116 colon) | TGI (HS 578T breast) | TGI (HT29 colon) | TGI (LOX IMVI melanoma) | TGI (MCF7 breast) | TGI (MDA-MB-231 breast) | TGI (SNB-19 CNS) | TGI (UACC-62 melanoma) | GI50 (DU-145 prostate) | GI50 (UACC-62 melanoma) | GI50 (EKVX NSCLC) | GI50 (HCT-116 colon) | GI50 (HS 578T breast) | GI50 (MDA-MB-231 breast)
CC(C)NCC(O)c1ccc(O)c2ncccc12 (stereo not given) | > 100 µM | > 100 µM | 87.7 µM | > 100 µM | > 100 µM | > 100 µM | > 100 µM | > 100 µM | > 100 µM | > 100 µM | – | – | – | – | – | –
COc1cc(S(=O)(=O)Nc2ccc(-c3csc(N4C(=O)C(Cl)C4c4cccc(Oc5ccccc5)c4)n3)cc2)ccc1Cl (stereo not given) | 52.1 µM | 52 µM | > 100 µM | > 100 µM | > 100 µM | 4.89 µM | > 100 µM | – | > 100 µM | 53.4 µM | – | – | – | – | – | –
CO[C@H]1CC[C@]2(C)C3=CC[C@@]4(C)C(CC[C@@H]4C(C)CC[C@@H](C)C(C)C)C(=CCC2C1)O3 (stereo not given in full) | – | > 25 µM | > 25 µM | – | > 25 µM | > 25 µM | – | – | > 25 µM | > 25 µM | – | – | – | – | – | –
Fc1ccc2[nH]cc(-c3nc(-c4c[nH]c5ccncc45)cs3)c2c1 | 3.1 µM | – | – | – | – | – | – | – | – | 3.2 µM | 1.69 µM | 1.72 µM | – | – | – | –
Clc1ccc2nc3n[nH]c(Cl)c3nc2c1 | > 100 µM | 85.4 µM | > 100 µM | 63.6 µM | > 100 µM | – | > 100 µM | > 100 µM | > 100 µM | > 100 µM | – | – | – | – | – | –
Cc1ccc2n(c1)cc(-c1ccc(/C=N/NC(=N)N/N=C/c3ccc(-c4cn5cc(C)ccc5[n+]4C)cc3)cc1)[n+]2C | – | > 100 µM | > 100 µM | > 100 µM | > 100 µM | – | > 100 µM | > 100 µM | > 100 µM | – | – | – | – | – | – | –
Nc1ncnc2c1sc(=S)n2-c1ccccc1 | – | > 100 µM | > 100 µM | – | > 100 µM | > 100 µM | – | – | > 100 µM | > 100 µM | – | – | – | – | – | –
Nc1nc2c(c(-c3ccccc3Cl)n1)COC/C2=C\c1ccccc1Cl | 32.6 µM | 35.2 µM | 30.7 µM | 51 µM | – | 36.9 µM | 27.7 µM | 34.8 µM | 29.8 µM | 30.6 µM | – | – | – | – | – | –
COC(=O)c1ccccc1NC(=S)NN(C)C | > 100 µM | > 100 µM | > 100 µM | > 100 µM | – | > 100 µM | > 100 µM | > 100 µM | > 100 µM | > 100 µM | – | – | – | – | – | –
CCCCCCCCCC(O)CC(=O)c1c(O)cccc1O (stereo not given) | > 100 µM | 45.5 µM | 56.7 µM | 40.8 µM | 43 µM | 46 µM | 50.3 µM | 46.5 µM | 73 µM | – | – | – | – | – | – | –
Nc1ncnc2c1ncn2CCCC(c1ccccc1)P(=O)(O)O (stereo not given) | – | > 100 µM | > 100 µM | – | > 100 µM | > 100 µM | – | – | > 100 µM | > 100 µM | – | – | – | – | – | –
Cn1cc(-c2nc(-c3c[nH]c4ccncc34)cs2)c2ccccc21 | 3.15 µM | 3.36 µM | 3.04 µM | 4.4 µM | – | – | – | 3.04 µM | – | 3.11 µM | 1.74 µM | 1.69 µM | 1.64 µM | 1.61 µM | 1.93 µM | 1.56 µM
O=C(NNS(=O)(=O)c1ccc(Br)cc1)c1ccc(Cl)cc1NC(=O)C12CC3CC(CC(C3)C1)C2 | 33.4 µM | 27.3 µM | > 100 µM | 40.7 µM | 27.2 µM | 28.4 µM | 34.1 µM | – | 28.7 µM | 25.6 µM | – | – | – | – | – | –
CC(C(=O)NCCNC(=O)CCC(=O)N(C)O)C(=O)NCCNC(=O)CCC(=O)N(C)O | > 100 µM | > 100 µM | – | > 100 µM | > 100 µM | > 100 µM | > 100 µM | > 100 µM | > 100 µM | > 100 µM | – | – | – | – | – | –
CCCCCCCCCCCCCCCCNCC(O)CN (stereo not given) | – | 44.6 µM | 3.64 µM | – | 4.44 µM | 3.45 µM | 6.47 µM | – | 36 µM | 17 µM | – | – | – | – | – | –
CCNC(=O)NNc1ncnc2c1c(-c1ccc(Cl)cc1)cn2-c1ccc(C)cc1 | 44.9 µM | 65.4 µM | 28.1 µM | – | 34 µM | 36.4 µM | – | 34.8 µM | 34.5 µM | 33.3 µM | – | – | – | – | – | –
O=C1CCCCC/C1=C\c1cccc([N+](=O)[O-])c1 | > 100 µM | > 100 µM | 53 µM | – | > 100 µM | – | > 100 µM | 56.4 µM | > 100 µM | 67.6 µM | – | – | – | – | – | –
O=S(c1ccccc1)C1CC2CC3(CCC21O)OCCO3 (stereo not given) | > 100 µM | > 100 µM | – | > 100 µM | > 100 µM | > 100 µM | > 100 µM | > 100 µM | > 100 µM | > 100 µM | – | – | – | – | – | –
COc1cc(N)c2[nH]c3c(C)ccc(C)c3c2c1 | – | > 100 µM | > 100 µM | – | > 100 µM | > 100 µM | – | – | > 100 µM | – | – | – | – | – | – | –
COC(=O)[C@@H]1[C@H](O)CCC2=C(CC(=O)c3ccoc3)[C@H](C)CC[C@]21C | – | > 50 µM | > 50 µM | > 50 µM | > 50 µM | > 50 µM | > 50 µM | > 50 µM | > 50 µM | > 50 µM | – | – | – | – | – | –
CC(C)(C)c1ccc(O)c(C(c2ccc([N+](=O)[O-])cc2)c2cc(C(C)(C)C)ccc2O)c1 | 6.14 µM | 3.92 µM | 5.06 µM | 18.7 µM | 4.47 µM | – | 3.83 µM | 3.78 µM | 5.36 µM | 3.2 µM | – | – | – | – | – | –
CC(=O)Oc1c2c(c(OC(C)=O)c3c1n(C(C)=O)c1ccccc1n3C(C)=O)n(C(C)=O)c1ccccc1n2C(C)=O | – | – | – | – | 13 µM | 24.6 µM | – | – | 53.8 µM | 37 µM | – | – | – | – | – | –
COc1ccc(C2S/C(=C\c3cccc(OC)c3)C(=O)N2NC(=O)Cc2ccccc2)cc1 (stereo not given) | – | – | > 100 µM | – | > 100 µM | > 100 µM | – | – | – | > 100 µM | – | – | – | – | – | –
CC(=O)NNC(=S)/N=C\c1c(O)c2ccccc2oc1=O | > 100 µM | – | > 100 µM | > 100 µM | > 100 µM | > 100 µM | > 100 µM | > 100 µM | > 100 µM | > 100 µM | – | – | – | – | – | –
COC(=O)CCCC1(CCCC(=O)OC)CCCCCCCCC(CCCC(=O)OC)(CCCC(=O)OC)C(=O)C1=O | > 100 µM | > 100 µM | > 100 µM | > 100 µM | > 100 µM | 48.5 µM | > 100 µM | – | > 100 µM | 39.5 µM | – | – | – | – | – | –
